Data on 16 molecules can be found in PubChem BioAssay (NCI).

The structures appear in SMILES notation. “And” between values parts separate entries of the source, which are not always exact repeats. Equal values may be shown once.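 Assay format: 96-well plates, 48-hour exposure. GI50: concentration for 50% inhibition of growth. TGI marks complete inhibition of growth.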

Some test systems named below: DLD-1 colon; MDA-N; KM20L2 colon; MCF7 breast; T-47D breast.
What all share (experiment): NCI anticancer screen, dose series, 48 h

Turning to `COc1cc2c3cc1Oc1c(OC)c(OC)cc4c1C(Cc1ccc(cc1)Oc1cc(ccc1O)CC3N(C)CC2)N(C)CC4` (stereo unspecified), the TGI in the experiment on DLD-1 colon came to 54.9 µM; in the experiment with MDA-N, 17 µM; with KM20L2 colon, 24.7 µM; in the experiment with MCF7 breast, 20.8 µM; in the experiment with T-47D breast it was 26.8 µM.
The like results for `Oc1ccc(Cn2c(-c3ccc(O)cc3)nc3ccccc32)cc1` were, in that order, > 100 µM, > 100 µM, > 100 µM, > 100 µM and > 100 µM.
On to `O=S(=O)(N/N=C/c1ccc(Cl)cc1Cl)c1ccccc1`, for which the TGI in the experiment on DLD-1 colon and with KM20L2 colon was > 100 µM each time.
As to `NC(=O)N/N=C(\CCC(=O)N(Cc1ccccc1)Cc1ccccc1)CC(=O)c1ccc(F)cc1`, the TGI in the experiment with DLD-1 colon and in the experiment with KM20L2 colon was > 100 µM throughout.
As to `c1ccc2c(CN3CCC(C4CCN(Cc5cccc6ccccc56)CC4)CC3)cccc2c1`, the TGI was 26.8 µM with DLD-1 colon; 25.2 µM in the experiment on MDA-N; 10.3 µM in the experiment with KM20L2 colon; > 73.7 µM in the experiment on MCF7 breast; 89.1 µM with T-47D breast.
`CCN(CC)CCC(=O)O[C@H]1CC[C@H](CC(C)[C@H]2CC(=O)C(C)C=C(C)[C@H](OC(=O)CCN(CC)CC)C(OC)C(=O)[C@@H](C)CC(C)/C=C/C=C/C=C(C)C(OC)CC3CC[C@H](C)[C@](O)(O3)C(=O)C(=O)N3CCCCC3C(=O)O2)CC1OC` (stereo partly specified): the TGI was 2.62 µM in the experiment with DLD-1 colon; 4.38 µM and 2.12 µM in the experiment on MDA-N; > 4.99 µM in the experiment on KM20L2 colon; 3.54 µM and 3.78 µM in the experiment on MCF7 breast; 4.12 µM in the experiment on T-47D breast. Further, the results for the GI50 in the experiment on MDA-N and with T-47D breast were 1.96 µM and 0.0267 µM, respectively.
As to `Nc1ccc(C2=Nc3ccccc3SC(c3ccccc3O)C2)cc1` (stereo unspecified), the TGI in the experiment with DLD-1 colon and with KM20L2 colon was > 100 µM each time.
As for `CC(=O)O/N=C/c1cc2c(cc1Br)OCO2`, the TGI in the experiment on DLD-1 colon and with KM20L2 colon was > 349 µM throughout.
Consider `COc1ccc(/C=N\O[Si](C)(C)C(C)(C)C)cc1O[Si](C)(C)C(C)(C)C`, for which the values for the TGI in the experiment with DLD-1 colon and in the experiment with KM20L2 colon were 32.9 µM and > 100 µM, respectively.
For `O=C(CC(=O)C1CCOC1=O)C(=O)Nc1ccc(Cl)cc1` (stereo unspecified) the same measures were > 100 µM and > 100 µM.
With `OC1c2ccccc2C2C(O)c3ccccc3C12` (stereo unspecified), the TGI with DLD-1 colon and in the experiment on KM20L2 colon was > 100 µM throughout.
For `NS(=O)(=O)c1ccc(NC(=O)c2cccc3c(Nc4ccc(S(N)(=O)=O)cc4)c4ccccc4nc23)cc1`, the TGI with DLD-1 colon and with KM20L2 colon was > 100 µM throughout.
For `[O-][n+]1c2cc(CN3CCOCC3)c(CN3CCOCC3)cc2[n+]([O-])c2c(O)cccc21`, the TGI was determined as 6.8 µM in the experiment on DLD-1 colon and 15.4 µM in the experiment on KM20L2 colon.
On to `Cc1cc(C)nc(NS(=O)(=O)c2ccc(NC(=O)c3cccc4c(N)c5ccccc5nc34)cc2)n1`, for which the TGI in the experiment with DLD-1 colon and with KM20L2 colon was > 100 µM throughout.
With `COc1cc2c(Cc3cc(OCc4ccccc4)ccc3N)nccc2c(OC)c1OC`, the TGI in the experiment with DLD-1 colon and in the experiment with KM20L2 colon was > 10 µM in each case.
Take `O=C(NC1C=Nc2ccccc2NC1=O)c1ccccc1Cl` (stereo unspecified): the TGI with DLD-1 colon and in the experiment on KM20L2 colon was > 100 µM each time.
